# Experimental data from paper PMC9403976, “Elucidating the path to Plasmodium prolyl-tRNA synthetase inhibitors that overcome halofuginone resistance” (Nature Communications, 2022).
# Several values for one entry are separate records, joined by “and”; a condition that tells them apart may be missing. Identical values can stand only once. Like-named read-outs stand apart in the source and are kept apart here.
# Legend:
# [1] = test system: P. falciparum Dd2-2D4; test: P. falciparum asexual blood stage (ABS) growth assay, SYBR Green, 72 h, wild-type parasites; assay type: cell-based, Plasmodium falciparum; conditions: for ABS growth dose-response, normalized signal (Replicates 1-3): Dd2-2D4
# [2] = test system: halofuginone-induced P. falciparum (elevated proline homeostasis); test: P. falciparum ABS growth assay, SYBR Green, 72 h, halofuginone-induced parasites; assay type: cell-based, Plasmodium falciparum; conditions: Halofuginone-Induced (HFG-Induced)
# Method in brief: (§1)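 SYBR Green 1 fluorescence after 72 h quantified growth of erythrocytic-stage Dd2 lines seeded at 1% parasitemia and 1% hematocrit. Compounds were tested in triplicate dose-response format in RPMI with 0.5% Albumax, referenced to 10 μM dihydroartemisinin and untreated wells.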
# [3] = test system: HFGR-I P. falciparum (elevated proline homeostasis and PfcProRS^L482H); test: P. falciparum ABS growth assay, SYBR Green, 72 h, HFGR-I parasites; assay type: cell-based, Plasmodium falciparum; conditions: HFGR-I
# Method in brief: as §1
# [4] = target: T1, PfcProRS (Plasmodium falciparum, UniProt Q8I5R7); assay type: binding; conditions: for dose-response signal (normalized), SI Fig 8: single replicates
# T1 construct: made in house; host or cells: E. coli SoluBL-21
# [5] = target: HsProRS (Homo sapiens, UniProt P07814); test: TR-FRET ligand displacement assay with tracer MAT379 (CoraFluor-1-Halo and anti-His6 antibody formats); assay type: binding; set-up: made in house; host or cells: E. coli SoluBL-21; conditions: for Kd: 250 nM MAT379; for TR-FRET dose-response, normalized signal (SI Fig 11): individual replicates
# Sequence of HsProRS (P07814 996-1512): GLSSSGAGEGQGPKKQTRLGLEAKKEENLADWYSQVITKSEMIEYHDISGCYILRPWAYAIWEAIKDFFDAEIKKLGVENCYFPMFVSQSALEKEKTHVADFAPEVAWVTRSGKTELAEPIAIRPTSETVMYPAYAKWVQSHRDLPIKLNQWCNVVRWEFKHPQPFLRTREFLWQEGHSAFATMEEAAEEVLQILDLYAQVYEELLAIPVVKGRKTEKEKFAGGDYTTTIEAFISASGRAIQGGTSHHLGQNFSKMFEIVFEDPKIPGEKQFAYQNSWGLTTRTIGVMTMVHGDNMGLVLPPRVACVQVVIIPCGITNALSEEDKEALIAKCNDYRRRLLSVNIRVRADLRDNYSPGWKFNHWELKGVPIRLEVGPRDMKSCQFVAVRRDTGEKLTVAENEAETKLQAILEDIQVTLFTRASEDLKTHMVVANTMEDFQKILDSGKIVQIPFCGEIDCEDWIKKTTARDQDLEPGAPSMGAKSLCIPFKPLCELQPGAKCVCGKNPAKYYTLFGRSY
# T1 sequence (Q8I5R7 249-746): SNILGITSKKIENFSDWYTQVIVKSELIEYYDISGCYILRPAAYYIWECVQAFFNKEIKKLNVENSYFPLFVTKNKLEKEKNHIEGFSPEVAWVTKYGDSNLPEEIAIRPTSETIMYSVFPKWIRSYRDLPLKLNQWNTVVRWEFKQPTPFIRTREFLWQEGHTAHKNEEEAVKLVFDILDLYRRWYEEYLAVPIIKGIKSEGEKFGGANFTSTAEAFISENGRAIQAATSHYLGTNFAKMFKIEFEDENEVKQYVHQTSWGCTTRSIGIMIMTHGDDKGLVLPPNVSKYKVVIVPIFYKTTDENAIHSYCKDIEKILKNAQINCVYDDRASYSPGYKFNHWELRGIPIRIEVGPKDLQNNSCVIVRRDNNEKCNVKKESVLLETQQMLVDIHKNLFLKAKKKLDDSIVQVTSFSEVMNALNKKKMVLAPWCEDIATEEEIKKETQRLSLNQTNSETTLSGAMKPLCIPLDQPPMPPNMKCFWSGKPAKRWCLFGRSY
structure (smiles),measurement,setting,value
CC(C)(C)OC(=O)N[C@H]1CC[C@@H](C(=O)Nc2nccnc2C(=O)NC2Cc3ccccc3C2)CC1 [compound 6],"ABS growth dose-response, normalized signal (Replicates 1-3)",[1]; Log[inhibitor] (M) -4.699,0
same,"ABS growth dose-response, normalized signal (Replicates 1-3)",[1]; Log[inhibitor] (M) -5.301,1
same,"ABS growth dose-response, normalized signal (Replicates 1-3)",[1]; Log[inhibitor] (M) -5.903,4
same,EC50,"[1]; Plasmodium falciparum, DD2, SI Fig 16b, values on -log scale, read-out: ABS - Dd2-2D4 (converted)",508 nM
same,"ABS growth dose-response, normalized signal (Replicates 1-3)",[2]; Log[inhibitor] (M) -5.000,38 and 37 and 33
same,"ABS growth dose-response, normalized signal (Replicates 1-3)",[2]; Log[inhibitor] (M) -5.301,80 and 73 and 79
same,"ABS growth dose-response, normalized signal (Replicates 1-3)",[2]; Log[inhibitor] (M) -5.602,89 and 91 and 90
same,"ABS growth dose-response, normalized signal (Replicates 1-3)",[2]; Log[inhibitor] (M) -5.903,99 and 97 and 98
same,"ABS growth dose-response, normalized signal (Replicates 1-3)",[2]; Log[inhibitor] (M) -6.204,99 and 98 and 96
same,"ABS growth dose-response, normalized signal (Replicates 1-3)",[2]; Log[inhibitor] (M) -6.505,98 and 107 and 101
same,"ABS growth dose-response, normalized signal (Replicates 1-3)",[2]; Log[inhibitor] (M) -6.806,93 and 91 and 99
same,"ABS growth dose-response, normalized signal (Replicates 1-3)",[2]; Log[inhibitor] (M) -7.107,91 and 93 and 96
same,"ABS growth dose-response, normalized signal (Replicates 1-3)",[2]; Log[inhibitor] (M) -7.408,96 and 93 and 99
same,"ABS growth dose-response, normalized signal (Replicates 1-3)",[2]; Log[inhibitor] (M) -7.709,100 and 98 (2×)
same,"ABS growth dose-response, normalized signal (Replicates 1-3)",[2]; Log[inhibitor] (M) -8.010,99 (2×) and 97
same,"ABS growth dose-response, normalized signal (Replicates 1-3)",[2]; Log[inhibitor] (M) -8.311,98 and 97 and 96
same,"ABS growth dose-response, normalized signal (Replicates 1-3)",[3]; Log[inhibitor] (M) -5.000,30 and 31 and 35
same,"ABS growth dose-response, normalized signal (Replicates 1-3)",[3]; Log[inhibitor] (M) -5.301,64 and 68 and 70
same,"ABS growth dose-response, normalized signal (Replicates 1-3)",[3]; Log[inhibitor] (M) -5.602,83 (2×) and 82
same,"ABS growth dose-response, normalized signal (Replicates 1-3)",[3]; Log[inhibitor] (M) -5.903,92 and 97 and 94
same,"ABS growth dose-response, normalized signal (Replicates 1-3)",[3]; Log[inhibitor] (M) -6.204,105 and 106 and 108
same,"ABS growth dose-response, normalized signal (Replicates 1-3)",[3]; Log[inhibitor] (M) -6.505,108 (2×) and 110
same,"ABS growth dose-response, normalized signal (Replicates 1-3)",[3]; Log[inhibitor] (M) -6.806,85 and 90 (2×)
same,"ABS growth dose-response, normalized signal (Replicates 1-3)",[3]; Log[inhibitor] (M) -7.107,91 and 92 and 97
same,"ABS growth dose-response, normalized signal (Replicates 1-3)",[3]; Log[inhibitor] (M) -7.408,92 and 97 and 99
same,"ABS growth dose-response, normalized signal (Replicates 1-3)",[3]; Log[inhibitor] (M) -7.709,95 and 99 (2×)
same,"ABS growth dose-response, normalized signal (Replicates 1-3)",[3]; Log[inhibitor] (M) -8.010,107 and 102 and 97
same,"ABS growth dose-response, normalized signal (Replicates 1-3)",[3]; Log[inhibitor] (M) -8.311,104 and 108 and 101
same,"dose-response signal (normalized), SI Fig 8",[4]; Log[inhibitor] (M) -5.000,-1.61E-02 and -5.30E-02 and -3.81E-03
same,"dose-response signal (normalized), SI Fig 8",[4]; Log[inhibitor] (M) -5.301,-7.80E-02 and -1.87E-02 and -8.78E-02
same,"dose-response signal (normalized), SI Fig 8",[4]; Log[inhibitor] (M) -5.601,1.78E-02 and -1.26E-02 and 5.92E-03
same,"dose-response signal (normalized), SI Fig 8",[4]; Log[inhibitor] (M) -5.904,6.25E-02 and 5.05E-02 and 9.24E-02
same,"dose-response signal (normalized), SI Fig 8",[4]; Log[inhibitor] (M) -6.208,5.23E-02 and 1.76E-01 and 1.80E-01
same,"dose-response signal (normalized), SI Fig 8",[4]; Log[inhibitor] (M) -6.509,2.25E-01 and 2.68E-01 and 2.02E-01
same,"dose-response signal (normalized), SI Fig 8",[4]; Log[inhibitor] (M) -6.796,4.96E-01 and 4.42E-01 and 4.81E-01
same,"dose-response signal (normalized), SI Fig 8",[4]; Log[inhibitor] (M) -7.108,6.45E-01 and 6.22E-01 and 4.90E-01
same,"dose-response signal (normalized), SI Fig 8",[4]; Log[inhibitor] (M) -7.409,7.15E-01 and 8.22E-01 and 8.32E-01
same,"dose-response signal (normalized), SI Fig 8",[4]; Log[inhibitor] (M) -7.710,9.70E-01 and 9.04E-01 and 8.55E-01
same,"dose-response signal (normalized), SI Fig 8",[4]; Log[inhibitor] (M) -8.000,8.78E-01 and 9.57E-01 and 8.94E-01
same,"dose-response signal (normalized), SI Fig 8",[4]; Log[inhibitor] (M) -8.301,1.00E+00 and 9.97E-01 and 9.67E-01
same,"dose-response signal (normalized), SI Fig 8",[4]; Log[inhibitor] (M) -8.602,1.06E+00 and 9.31E-01 and 1.01E+00
same,"dose-response signal (normalized), SI Fig 8",[4]; Log[inhibitor] (M) -9.000,9.58E-01 and 9.81E-01 and 9.50E-01
same,"dose-response signal (normalized), SI Fig 8",[4]; Log[inhibitor] (M) -9.301,1.01E+00 and 1.02E+00 and 9.51E-01
same,PfcProRS -- best Kd,"[4]; SI Fig 16a, values on -log scale",7.580
same,Kd,"[5]; HsProRS (KD [nM]) + proline, 100 μM proline",82.7 nM
same,Kd,"[5]; HsProRS (KD [nM]) −, absence of substrates",56.8 nM
same,"normalized TR-FRET ligand displacement signal, dose-response replicates (SI Fig 6)",[5]; Log[inhibitor] (M) -5.000,-9.02E-03 and -3.85E-02 and -4.81E-02
same,"TR-FRET dose-response, normalized signal (SI Fig 11)",[5]; Log[inhibitor] (M) -5.000,-2.98E-03 and 2.00E-02 and -3.48E-02
same,"normalized TR-FRET ligand displacement signal, dose-response replicates (SI Fig 6)",[5]; Log[inhibitor] (M) -5.301,1.39E-03 and -1.19E-02 and 6.50E-02
same,"TR-FRET dose-response, normalized signal (SI Fig 11)",[5]; Log[inhibitor] (M) -5.301,-9.84E-03 and -1.64E-02 and -3.17E-02
same,"normalized TR-FRET ligand displacement signal, dose-response replicates (SI Fig 6)",[5]; Log[inhibitor] (M) -5.601,3.06E-03 and 6.60E-02 and -6.88E-02
same,"TR-FRET dose-response, normalized signal (SI Fig 11)",[5]; Log[inhibitor] (M) -5.601,1.87E-02 and 1.41E-03 and 1.94E-02
same,"normalized TR-FRET ligand displacement signal, dose-response replicates (SI Fig 6)",[5]; Log[inhibitor] (M) -5.904,1.31E-01 and 8.92E-02 and 1.65E-02
same,"TR-FRET dose-response, normalized signal (SI Fig 11)",[5]; Log[inhibitor] (M) -5.904,4.76E-02 and 6.37E-02 and 6.71E-02
same,"normalized TR-FRET ligand displacement signal, dose-response replicates (SI Fig 6)",[5]; Log[inhibitor] (M) -6.208,8.21E-02 and 1.14E-01 and 9.74E-02
same,"TR-FRET dose-response, normalized signal (SI Fig 11)",[5]; Log[inhibitor] (M) -6.208,1.11E-01 and 9.52E-02 and 8.68E-02
same,"normalized TR-FRET ligand displacement signal, dose-response replicates (SI Fig 6)",[5]; Log[inhibitor] (M) -6.509,3.32E-01 and 2.13E-01 and 2.09E-01
same,"TR-FRET dose-response, normalized signal (SI Fig 11)",[5]; Log[inhibitor] (M) -6.509,1.70E-01 and 1.88E-01 and 1.94E-01
same,"normalized TR-FRET ligand displacement signal, dose-response replicates (SI Fig 6)",[5]; Log[inhibitor] (M) -6.796,3.90E-01 and 3.58E-01 and 4.40E-01
same,"TR-FRET dose-response, normalized signal (SI Fig 11)",[5]; Log[inhibitor] (M) -6.796,3.16E-01 and 2.94E-01 and 3.43E-01
same,"normalized TR-FRET ligand displacement signal, dose-response replicates (SI Fig 6)",[5]; Log[inhibitor] (M) -7.108,6.29E-01 and 5.81E-01 and 6.23E-01
same,"TR-FRET dose-response, normalized signal (SI Fig 11)",[5]; Log[inhibitor] (M) -7.108,5.24E-01 and 5.07E-01 and 4.16E-01
same,"normalized TR-FRET ligand displacement signal, dose-response replicates (SI Fig 6)",[5]; Log[inhibitor] (M) -7.409,7.27E-01 and 7.69E-01 and 8.30E-01
same,"TR-FRET dose-response, normalized signal (SI Fig 11)",[5]; Log[inhibitor] (M) -7.409,6.04E-01 and 6.96E-01 and 6.63E-01
same,"normalized TR-FRET ligand displacement signal, dose-response replicates (SI Fig 6)",[5]; Log[inhibitor] (M) -7.710,8.52E-01 and 7.93E-01 and 9.04E-01
same,"TR-FRET dose-response, normalized signal (SI Fig 11)",[5]; Log[inhibitor] (M) -7.710,7.36E-01 and 7.44E-01 and 7.53E-01
same,"normalized TR-FRET ligand displacement signal, dose-response replicates (SI Fig 6)",[5]; Log[inhibitor] (M) -8.000,8.26E-01 and 9.38E-01 and 9.73E-01
same,"TR-FRET dose-response, normalized signal (SI Fig 11)",[5]; Log[inhibitor] (M) -8.000,8.98E-01 and 8.12E-01 and 7.76E-01
same,"normalized TR-FRET ligand displacement signal, dose-response replicates (SI Fig 6)",[5]; Log[inhibitor] (M) -8.301,9.79E-01 and 9.47E-01 and 1.01E+00
same,"TR-FRET dose-response, normalized signal (SI Fig 11)",[5]; Log[inhibitor] (M) -8.301,8.89E-01 and 8.40E-01 and 9.15E-01
same,"normalized TR-FRET ligand displacement signal, dose-response replicates (SI Fig 6)",[5]; Log[inhibitor] (M) -8.602,9.42E-01 and 9.96E-01 and 9.03E-01
same,"TR-FRET dose-response, normalized signal (SI Fig 11)",[5]; Log[inhibitor] (M) -8.602,9.56E-01 and 8.65E-01 and 9.25E-01
same,"normalized TR-FRET ligand displacement signal, dose-response replicates (SI Fig 6)",[5]; Log[inhibitor] (M) -9.000,9.97E-01 and 9.50E-01 and 8.98E-01
same,"TR-FRET dose-response, normalized signal (SI Fig 11)",[5]; Log[inhibitor] (M) -9.000,9.29E-01 and 9.09E-01 and 9.22E-01
same,"normalized TR-FRET ligand displacement signal, dose-response replicates (SI Fig 6)",[5]; Log[inhibitor] (M) -9.301,1.05E+00 and 9.90E-01 and 1.06E+00
same,"TR-FRET dose-response, normalized signal (SI Fig 11)",[5]; Log[inhibitor] (M) -9.301,9.30E-01 and 9.49E-01 and 9.75E-01
